According to patent publication US6410594B1, “Substituted cyclopentane compounds useful as neuraminidase inhibitors” (Biocryst Pharmaceuticals, Inc., priority 1996, dated 2002):
Counter-ions that a name gives are not always drawn.

Tests used:
[1] = biological target: H1N9 Influenza Neuraminidase (Influenza A virus, UniProt P03472); experiment: biochemical; design: species or system influenza virus (H1N9 strain); settings: 10 min at 37° C.; read-out: Inhibition of H1N9 Influenza Neuraminidase IC50
H1N9 Influenza Neuraminidase, sequence (P03472 83-470 limits assumed): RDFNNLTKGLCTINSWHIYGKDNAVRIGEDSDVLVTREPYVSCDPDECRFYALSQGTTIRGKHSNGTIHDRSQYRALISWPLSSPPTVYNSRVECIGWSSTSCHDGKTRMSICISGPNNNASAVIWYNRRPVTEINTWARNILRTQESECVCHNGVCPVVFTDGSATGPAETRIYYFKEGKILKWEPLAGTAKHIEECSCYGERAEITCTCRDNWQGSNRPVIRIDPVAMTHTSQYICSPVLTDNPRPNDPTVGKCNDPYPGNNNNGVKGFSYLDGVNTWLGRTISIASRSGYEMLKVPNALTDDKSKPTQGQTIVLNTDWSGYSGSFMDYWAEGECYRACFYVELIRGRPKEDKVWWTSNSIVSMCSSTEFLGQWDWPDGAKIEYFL

SMILES	melting point	IC50 [1]
CC(=O)NC(C(O)C(O)CO)[C@H]1CC(C(=O)O)C[C@@H]1N (single isomer, unassigned) (as salt: salt)	58 to 62 °C	
CC(=O)NC(CO)[C@H]1CC(C(=O)[O-])C[C@@H]1NC(=N)N.[Na+] (single isomer, unassigned; isomer b) (hydrate or solvate) [Example 7, Sodium 3β-{[(amino)(imino)methyl]amino}-4α-[(2-hydroxy)(1-methylcarbonylamino)ethyl]-cyclopentan-r-carboxylate:diethylether:hydrate (12:4:3), isomer B]	65 °C	
CON(C)CCC(=O)C(NC(C)=O)[C@H]1CC(C(=O)O)C[C@@H]1NC(=N)N (stereo partly drawn) [Example 20]		8 µM
CCN(CC)C(=O)C(NC(C)=O)[C@H]1C[C@@H](C(=O)O)C[C@@H]1NC(=N)N (single isomer, unassigned) (as salt: trifluoroacetic acid salt)	> 110 °C (dec.)	
CC(=O)NC(COC(=O)C(F)(F)F)[C@H]1C[C@](O)(C(=O)O)C[C@@H]1NC(=N)N (single isomer, unassigned; isomer a) (as salt: salt) [Example 16, c-3-{[(Amino)(imino)methyl]amino}-t-1-hydroxy-t-4-[(1-methylcarbonylamino)(2-trifluoromethyl-carbonyloxy)ethyl]cyclopentan-r-carboxylic acid trifluoroacetic acid (4:1) (isomer A at C-6)]	148 to 160 °C	
CC(=O)NC(C(O)C(O)CO)[C@H]1CC(C(=O)O)C[C@@H]1NC(=N)N (single isomer, unassigned; isomer a) [Example 12, 3β-{[(Amino)(imino)methyl]amino}-4α-[(1-methylcarbonylamino) (2,3,4-trihydroxy)butyl)butyl]-cyclonentancarboxylic acid trifluoroacetic acid (1:2) (isomer A at C-1, isomer A at C-6, isomer B at C-7)]		7.5 µM
CC(=O)NC(C(O)C(O)CO)[C@H]1CC(C(=O)O)C[C@@H]1NC(=N)N (single isomer, unassigned; isomer b) [Example 13, 3β-{[(Amino)(imino)methyl]amino}-4α-[(1-methylcarbonylamino)(2,3,4-trihydroxy)butyl]-cyclopentancarboxylic acid trifluoroacetic acid (1:2) (isomer B at C-1, isomer A at C-6, isomer B at C-7)]		4.3 µM
N=C(N)NC[C@@H]1C[C@H](C(=O)O)C[C@H]1NC(=N)N (relative stereo) [Example 5, t-3-{[(Amino)(imino)methyl]amino}-c-4-{{[(amino)(imino)methyl]amino}methyl}cyclopentan-r-carboxylic acid dihydrochloride hydrate 2-propanol (5:10:5:2)]		280 µM
CC(=O)NC(C(O)C(O)CO)[C@H]1CC(C(=O)O)C[C@@H]1NC(=N)N (single isomer, unassigned; isomer b) [Example 15, 3β-{[(Amino)(imino)methyl]amino}-4α-[(1-methylcarbonylamino)(2,3,4-trihydroxy)butyl]cyclo-pentancarboxylic acid trifluoroacetic acid (5:13) (isomer B at C-6, isomer B at C-1, C-7 and/or C-8)]		50 µM
CC(=O)NC(C(O)C(O)CO)[C@H]1CC(C(=O)O)C[C@@H]1NC(=N)N (single isomer, unassigned; isomer a) (as salt: salt) [Example 12, 3β-{[(Amino)(imino)methyl]amino}-4α-[(1-methylcarbonylamino) (2,3,4-trihydroxy)butyl)butyl]-cyclonentancarboxylic acid trifluoroacetic acid (1:2) (isomer A at C-1, isomer A at C-6, isomer B at C-7)]	76 to 80 °C	
CC(=O)NC(CO)[C@H]1C[C@@](O)(C(=O)O)C[C@@H]1NC(=N)N (single isomer, unassigned; isomer a) [Example 9, t-3-{[(Amino)(imino)methyl]amino}-t-1-hydroxy-c-4-[(2-hydroxymethyl)(1-methylcarbonyl-amino)ethyl]cyclopentan-r-carboxylic acid trifluoroacetic acid diethyl ether [20:15:2] (isomer A at C-6)]		600 µM
CC(=O)NC(C(O)C(O)CO)[C@H]1CC(C(=O)O)C[C@@H]1NC(=N)N (single isomer, unassigned; isomer b) (as salt: salt) [Example 14, 3β-{[(Amino)(imino)methyl]amino}-4α-[(1-methylcarbonylamino)(2,3,4-trihydroxy)butyl]cyclo-pentancarboxylic acid trifluoroacetic acid (4:9) (isomer B at C-6, isomer A at C-1, C-7 and/or C-8)]	125 to 135 °C	
CC(=O)NC(COC(=O)C(F)(F)F)[C@H]1C[C@](O)(C(=O)O)C[C@@H]1NC(=N)N (single isomer, unassigned; isomer a) [Example 16, c-3-{[(Amino)(imino)methyl]amino}-t-1-hydroxy-t-4-[(1-methylcarbonylamino)(2-trifluoromethyl-carbonyloxy)ethyl]cyclopentan-r-carboxylic acid trifluoroacetic acid (4:1) (isomer A at C-6)]		70 µM
CCCN(CCC)C(=O)C(NC(C)=O)[C@H]1C[C@@](O)(C(=O)O)C[C@@H]1N (single isomer, unassigned) (as salt: salt)	168 to 170 °C	
CC(=O)NC(CO)[C@H]1C[C@@](O)(C(=O)O)C[C@@H]1N (stereo partly drawn) (as salt: ammonium)	83 to 85 °C	
CC(=O)NC(C(O)C(O)CO)[C@H]1CC(C(=O)O)C[C@@H]1NC(=N)N (single isomer, unassigned; isomer b) [Example 14, 3β-{[(Amino)(imino)methyl]amino}-4α-[(1-methylcarbonylamino)(2,3,4-trihydroxy)butyl]cyclo-pentancarboxylic acid trifluoroacetic acid (4:9) (isomer B at C-6, isomer A at C-1, C-7 and/or C-8)]		40 µM
CC(=O)NC[C@@H]1C[C@H](C(=O)O)C[C@H]1NC(=N)N (relative stereo) [Example 3, t-3-{[(Amino)(imino)methyl]amino}-c-4-[(methylcarbonylamino)methyl]-cyclopentan-r-carboxylic acid trifluoroacetic acid [1:1.25]]		115 µM
CC(=O)NC(C(O)C(O)CO)[C@H]1CC(C(=O)O)C[C@@H]1NC(=N)N (single isomer, unassigned; isomer b) (as salt: salt) [Example 15, 3β-{[(Amino)(imino)methyl]amino}-4α-[(1-methylcarbonylamino)(2,3,4-trihydroxy)butyl]cyclo-pentancarboxylic acid trifluoroacetic acid (5:13) (isomer B at C-6, isomer B at C-1, C-7 and/or C-8)]	140 to 145 °C	
CCCN(CCC)C(=O)C(NC(C)=O)[C@H]1C[C@@](O)(C(=O)O)C[C@@H]1N=C(N)N (stereo partly drawn) [Example 23, t-3-{[(Amino)(imino)methyl]amino}-c-4-[(di-n-propylaminocarbonyl)(methylcarbonylamino)-methyl]-t-hydroxycyclpentan-r-carboxylic acid trifluoroacetic acid (4:5)]		0.47 µM
CC(=O)NC(COC(=O)C(F)(F)F)[C@H]1C[C@](O)(C(=O)O)C[C@@H]1NC(=N)N (single isomer, unassigned; isomer b) [Example 17, c-3-{[(Amino)(imino)methyl]amino}-t-1-hydroxy-t-4-[(1-methylcarbonylamino)(2-trifluoromethyl-carbonyloxy)ethyl]cyclopentan-r-carboxylic acid trifluoroacetic acid (4:3) (isomer B at C-6)]		2000 µM
CCCN(CCC)C(=O)C(NC(C)=O)[C@H]1C[C@@](O)(C(=O)O)C[C@@H]1NC(=N)N (stereo partly drawn) (as salt: salt) [Example 23, t-3-{[(Amino)(imino)methyl]amino}-c-4-[(di-n-propylaminocarbonyl)(methylcarbonylamino)-methyl]-t-hydroxycyclpentan-r-carboxylic acid trifluoroacetic acid (4:5)]	153 to 155 °C	
CC(=O)NC(C(O)C(O)CO)[C@H]1CC(C(=O)O)C[C@@H]1NC(=N)N (single isomer, unassigned; isomer b) (as salt: salt) [Example 13, 3β-{[(Amino)(imino)methyl]amino}-4α-[(1-methylcarbonylamino)(2,3,4-trihydroxy)butyl]-cyclopentancarboxylic acid trifluoroacetic acid (1:2) (isomer B at C-1, isomer A at C-6, isomer B at C-7)]	124 to 128 °C	
CC(=O)NC(COC(=O)C(F)(F)F)[C@H]1C[C@](O)(C(=O)O)C[C@@H]1NC(=N)N (single isomer, unassigned; isomer b) (as salt: salt) [Example 17, c-3-{[(Amino)(imino)methyl]amino}-t-1-hydroxy-t-4-[(1-methylcarbonylamino)(2-trifluoromethyl-carbonyloxy)ethyl]cyclopentan-r-carboxylic acid trifluoroacetic acid (4:3) (isomer B at C-6)]	210 to 220 °C	
CCC=CC(NC(C)=O)[C@H]1CC(C(=O)O)C[C@@H]1NC(=N)N (stereo partly drawn) (as salt: salt)	62 to 64 °C	
CC(=O)NC(C(O)C(O)CO)[C@H]1CC(C(=O)O)C[C@@H]1N (single isomer, unassigned; isomer a) [Example 10, 3β-amino-4α-[(1-methylcarbonylamino)(2,3,4-trihydroxy)butyl]cyclopentancarboxylic acid trifluoroacetic acid (1:1) (isomer A at C-6)]		600 µM
CON(C)CCC(=O)C(NC(C)=O)[C@H]1CC(C(=O)O)C[C@@H]1NC(=N)N (stereo partly drawn) (as salt: salt) [Example 20]	189 to 192 °C	
CC(=O)NC(COCc1ccccc1)[C@H]1C[C@@](O)(C(=O)O)C[C@@H]1N (stereo partly drawn) (as salt: ammonium)	37 to 39 °C	
